Source: ChEMBL document CHEMBL4351033, “Heterocyclic β-keto sulfide derivatives of carvacrol: Synthesis and copper (II) ion reducing capacity” (Bioorg Med Chem Lett, 2019)
Activity calls are given as the source filed them. The calls are words filed in the database; no cut-off is given here.

Assay: Metal coordinating activity assessed as compound-copper coordination at 12.5 to 37.5 uM incubated for 0.5 to 1 hr in presence of 2.5 mM CuCl2 by UV-Visible spectrophotometric analysis
Format: functional

Compound | Activity
COc1cc(C(C)C)c(C(=O)CSc2nnc(-c3ccccn3)o2)cc1C | inactive

Assay: Antioxidant activity assessed as reduction of Cu2+ in bis-neocuproine-Cu2+ complex to bis-neocuproine-Cu+ complex measured as trolox equivalent antioxidant capacity incubated for 30 mins by CUPRAC assay
Format: functional

Compound | Ratio | Activity
COc1cc(C(C)C)c(C(=O)CSc2nnc(C)s2)cc1C | 1.73 | –
COc1cc(C(C)C)c(C(=O)CSc2nnc(-c3ccccn3)o2)cc1C | 1.59 | –
COc1cc(C(C)C)c(C(=O)CS(=O)(=O)c2ccccc2)cc1C | – | inactive
COc1cc(C(C)C)c(C(=O)CSc2ncnc3[nH]cnc23)cc1C | 1.32 | –
COc1cc(C(C)C)c(C(=O)CSc2nc3ccccc3o2)cc1C | 1.47 | –
COc1cc(C(C)C)c(C(=O)CSc2nnc(-c3ccccc3)o2)cc1C | 1.34 | –
Cc1ccc(C(C)C)cc1O | 0.87 | –
COc1cc(C(C)C)c(C(=O)CSc2ccccc2)cc1C | 0.8 | –
COc1cc(C(C)C)c(C(=O)CSc2nnc(-c3cccnc3)o2)cc1C | 0.68 | –
COc1cc(C(C)C)c(C(=O)CSc2nc3ccccc3[nH]2)cc1C | 1.21 | –
COc1cc(C(C)C)c(C(=O)CSc2ccncc2)cc1C | 0.47 | –
COc1cc(C(C)C)c(C(=O)CSc2ccccn2)cc1C | 0.59 | –
COc1cc(C(C)C)c(C(=O)CSc2nc3ccccc3s2)cc1C | 1.26 | –
COc1cc(C(C)C)c(C(=O)CSc2nnc(-c3ccncc3)o2)cc1C | 0.95 | –
O=C1O[C@H]([C@@H](O)CO)C(O)=C1O | 0.85 | –
COc1cc(C(C)C)c(C(=O)CSc2nnc(N)[nH]2)cc1C | 1.62 | –
COc1cc(C(C)C)c(C(=O)CSc2nnc(-c3ccccc3)[nH]2)cc1C | 1.02 | –
COc1cc(C(C)C)c(C(=O)CSc2ncccn2)cc1C | 0.39 | –
COc1cc(C(C)C)c(C(=O)CSc2nnc(N)s2)cc1C | 1.4 | –
